Legend:
[1] = The drug is tested on Bifidobacterium longum subsp. Infantis strain: CCUG52486 for biotransformation. The drug concentrations were measured before and after a 12-h incubation by liquid-chromatography-coupled mass spectrometry (LC–MS); conditions: 2 µM
[2] = The drug is tested on Bacteroides caccae strain: ATCC43185 for biotransformation. The drug concentrations were measured before and after a 12-h incubation by liquid-chromatography-coupled mass spectrometry (LC–MS); conditions: 2 µM
[3] = The drug is tested on Bacteroides finegoldii strain: DSM17565 for biotransformation. The drug concentrations were measured before and after a 12-h incubation by liquid-chromatography-coupled mass spectrometry (LC–MS); conditions: 2 µM
[4] = The drug is tested on Bacteroides sp. WH2 strain: WH2 for biotransformation. The drug concentrations were measured before and after a 12-h incubation by liquid-chromatography-coupled mass spectrometry (LC–MS); conditions: bacteroides sp. wh2, 12 h, 2 µM
[5] = The drug is tested on Odoribacter splanchnicus strain: fecal isolate for biotransformation. The drug concentrations were measured before and after a 12-h incubation by liquid-chromatography-coupled mass spectrometry (LC–MS); conditions: 2 µM
[6] = The drug is tested on Parabacteroides merdae strain: ATCC43184 for biotransformation. The drug concentrations were measured before and after a 12-h incubation by liquid-chromatography-coupled mass spectrometry (LC–MS); conditions: 2 µM
[7] = The drug is tested on Anaerococcus hydrogenalis strain: DSM7454 for biotransformation. The drug concentrations were measured before and after a 12-h incubation by liquid-chromatography-coupled mass spectrometry (LC–MS); conditions: 2 µM
[8] = The drug is tested on Blautia luti strain: DSM14534 for biotransformation. The drug concentrations were measured before and after a 12-h incubation by liquid-chromatography-coupled mass spectrometry (LC–MS); assay type: ADME; parameters: dose 2 uM, timepoint 0 vs 12 hours; conditions: 2 µM
[9] = The drug is tested on Eubacterium ventriosum strain: ATCC27560 for biotransformation. The drug concentrations were measured before and after a 12-h incubation by liquid-chromatography-coupled mass spectrometry (LC–MS); assay type: ADME; parameters: dose 2 uM, timepoint 0 vs 12 hours; conditions: 2 µM
[10] = The drug is tested on Ruminococcus lactaris strain: ATCC29176 for biotransformation. The drug concentrations were measured before and after a 12-h incubation by liquid-chromatography-coupled mass spectrometry (LC–MS); conditions: 2 µM
[11] = The drug is tested on Providencia stuartii strain: ATCC25827 for biotransformation. The drug concentrations were measured before and after a 12-h incubation by liquid-chromatography-coupled mass spectrometry (LC–MS); conditions: 2 µM
[12] = bacteroides intestinalis, 12 h, 2 µM
Description: The drug is tested on Bacteroides intestinalis strain: DSM17393 for biotransformation. The drug concentrations were measured before and after a 12-h incubation by liquid-chromatography-coupled mass spectrometry (LC–MS)

[13] = bacteroides thetaiotaomicron, 12 h, 2 µM
Description: The drug is tested on Bacteroides thetaiotaomicron strain: 3731 for biotransformation. The drug concentrations were measured before and after a 12-h incubation by liquid-chromatography-coupled mass spectrometry (LC–MS)

[14] = parabacteroides distasonis, 12 h, 2 µM
Description: The drug is tested on Parabacteroides distasonis strain: ATCC8503 for biotransformation. The drug concentrations were measured before and after a 12-h incubation by liquid-chromatography-coupled mass spectrometry (LC–MS)

[15] = parabacteroides johnsonii, 12 h, 2 µM
Description: The drug is tested on Parabacteroides johnsonii strain: DSM18315 for biotransformation. The drug concentrations were measured before and after a 12-h incubation by liquid-chromatography-coupled mass spectrometry (LC–MS)

[16] = segatella copri, 12 h, 2 µM
Description: The drug is tested on Prevotella copri strain: DSM18205 for biotransformation. The drug concentrations were measured before and after a 12-h incubation by liquid-chromatography-coupled mass spectrometry (LC–MS)

[17] = anaerostipes sp., 12 h, 2 µM
Description: The drug is tested on Anaerostipes sp. strain: fecal isolate for biotransformation. The drug concentrations were measured before and after a 12-h incubation by liquid-chromatography-coupled mass spectrometry (LC–MS)

[18] = limosilactobacillus reuteri cf48-3a, 12 h, 2 µM
Description: The drug is tested on Lactobacillus reuteri CF48-3A strain: BEI HM-102 for biotransformation. The drug concentrations were measured before and after a 12-h incubation by liquid-chromatography-coupled mass spectrometry (LC–MS)

[19] = akkermansia muciniphila, 12 h, 2 µM
Description: The drug is tested on Akkermansia muciniphila strain: ATCC BAA-835 for biotransformation. The drug concentrations were measured before and after a 12-h incubation by liquid-chromatography-coupled mass spectrometry (LC–MS)

SMILES | Bacterial Biotransformation [1] | Bacterial Biotransformation [2] | Bacterial Biotransformation [3] | Bacterial Biotransformation [4] | Bacterial Biotransformation [5] | Bacterial Biotransformation [6] | Bacterial Biotransformation [7] | Bacterial Biotransformation [8] | Bacterial Biotransformation [9] | Bacterial Biotransformation [10] | Bacterial Biotransformation [11] | Bacterial Biotransformation [12] | Bacterial Biotransformation [13] | Bacterial Biotransformation [14] | Bacterial Biotransformation [15] | Bacterial Biotransformation [16] | Bacterial Biotransformation [17] | Bacterial Biotransformation [18] | Bacterial Biotransformation [19]
CN1C[C@H](C(=O)N[C@]2(C)O[C@@]3(O)[C@@H]4CCCN4C(=O)[C@H](Cc4ccccc4)N3C2=O)C=C2c3cccc4[nH]cc(c34)C[C@H]21.CN1C[C@H](C(=O)N[C@]2(C)O[C@@]3(O)[C@@H]4CCCN4C(=O)[C@H](Cc4ccccc4)N3C2=O)C=C2c3cccc4[nH]cc(c34)C[C@H]21.O=C(O)C(O)C(O)C(=O)O [ERGOTAMINE TARTRATE] | Compound metabolized | Compound metabolized | Compound metabolized | Compound metabolized | Compound metabolized | Compound metabolized | Compound metabolized | Compound metabolized | Compound NOT metabolized | Compound metabolized | Compound metabolized | Compound metabolized | Compound metabolized | Compound metabolized | Compound metabolized | Compound metabolized | Compound metabolized | Compound metabolized | Compound metabolized
CC[C@H](C)C(=O)O[C@H]1CCC=C2C=C[C@H](C)[C@H](CC[C@@H]3C[C@@H](O)CC(=O)O3)[C@H]21 [MEVASTATIN] | Compound metabolized | Compound metabolized | Compound metabolized | Compound metabolized | Compound metabolized | Compound metabolized | Compound metabolized | Compound metabolized | Compound metabolized | Compound metabolized | Compound metabolized | Compound metabolized | Compound metabolized | Compound metabolized | Compound metabolized | Compound metabolized | Compound metabolized | Compound metabolized | Compound metabolized
CCCc1nc(C(C)(C)O)c(C(=O)OCc2oc(=O)oc2C)n1Cc1ccc(-c2ccccc2-c2nnn[nH]2)cc1 [OLMESARTAN MEDOXOMIL] | Compound metabolized | Compound metabolized | Compound metabolized |  | Compound metabolized | Compound metabolized | Compound metabolized |  | Compound metabolized | Compound metabolized | Compound metabolized | Compound metabolized |  | Compound metabolized | Compound metabolized | Compound metabolized | Compound metabolized | Compound metabolized | Compound metabolized
COc1cc2c(c(OC)c1OC)-c1ccc(OC)c(=O)cc1[C@@H](NC(C)=O)CC2 [COLCHICINE] | Compound NOT metabolized |  |  |  | Compound metabolized | Compound NOT metabolized | Compound NOT metabolized | Compound NOT metabolized | Compound NOT metabolized | Compound NOT metabolized | Compound NOT metabolized | Compound metabolized | Compound metabolized | Compound metabolized | Compound metabolized | Compound metabolized | Compound metabolized | Compound NOT metabolized | Compound NOT metabolized
CC(C)(Oc1ccc(CCNC(=O)c2ccc(Cl)cc2)cc1)C(=O)O [BEZAFIBRATE] | Compound metabolized | Compound metabolized | Compound metabolized | Compound metabolized | Compound metabolized | Compound metabolized | Compound metabolized | Compound metabolized | Compound metabolized | Compound NOT metabolized | Compound metabolized | Compound metabolized | Compound metabolized | Compound metabolized | Compound NOT metabolized | Compound metabolized | Compound metabolized | Compound metabolized | Compound metabolized
Cc1nc2n(c(=O)c1CCN1CCC(c3noc4cc(F)ccc34)CC1)CCCC2 [RISPERIDONE] | Compound NOT metabolized | Compound metabolized | Compound NOT metabolized | Compound NOT metabolized | Compound metabolized | Compound NOT metabolized | Compound metabolized | Compound metabolized | Compound NOT metabolized | Compound metabolized |  | Compound NOT metabolized | Compound NOT metabolized | Compound NOT metabolized | Compound NOT metabolized | Compound NOT metabolized |  | Compound NOT metabolized | Compound NOT metabolized
CSc1ccc2c(c1)C(N1CCN(C)CC1)Cc1ccccc1S2.O=C(O)/C=C\C(=O)O (centres undefined) | Compound NOT metabolized | Compound NOT metabolized | Compound NOT metabolized | Compound NOT metabolized | Compound NOT metabolized | Compound NOT metabolized |  | Compound NOT metabolized | Compound NOT metabolized | Compound NOT metabolized | Compound NOT metabolized | Compound NOT metabolized | Compound NOT metabolized | Compound metabolized | Compound metabolized | Compound metabolized | Compound metabolized | Compound NOT metabolized | Compound NOT metabolized

Source: ChEMBL document CHEMBL5303573, “Mapping human microbiome drug metabolism by gut bacteria and their genes” (Nature, 2019)
